From ChEMBL document CHEMBL5500407, “Designing Chromane Derivatives as α2A-Adrenoceptor Selective Agonists via Conformation Constraint” (J Med Chem, 2024)
Active and inactive are the calls of the source. The rule behind the calls is not given here.

Experiments:
[1] = target: T1, Alpha-1D adrenergic receptor (Homo sapiens, UniProt P25100); assay: Binding affinity to human alpha1D-adrenoceptor
T1 sequence (P25100 whole entry): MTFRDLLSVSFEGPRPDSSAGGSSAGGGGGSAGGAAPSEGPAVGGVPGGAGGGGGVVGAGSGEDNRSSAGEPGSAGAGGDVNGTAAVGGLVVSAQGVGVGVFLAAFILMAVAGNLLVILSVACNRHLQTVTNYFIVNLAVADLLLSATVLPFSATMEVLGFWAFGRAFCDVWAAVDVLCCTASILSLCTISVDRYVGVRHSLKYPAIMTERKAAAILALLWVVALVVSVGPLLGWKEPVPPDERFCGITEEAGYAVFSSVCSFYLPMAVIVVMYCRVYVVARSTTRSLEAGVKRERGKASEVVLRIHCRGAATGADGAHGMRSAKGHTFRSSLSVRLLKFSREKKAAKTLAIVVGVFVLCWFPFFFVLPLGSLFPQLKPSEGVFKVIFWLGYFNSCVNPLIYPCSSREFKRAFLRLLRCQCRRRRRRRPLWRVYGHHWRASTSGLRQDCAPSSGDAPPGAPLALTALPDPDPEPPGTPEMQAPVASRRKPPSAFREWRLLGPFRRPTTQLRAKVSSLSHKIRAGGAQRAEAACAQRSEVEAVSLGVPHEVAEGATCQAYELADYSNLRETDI

[2] = target: T2, Alpha-1B adrenergic receptor (Homo sapiens, UniProt P35368); assay: Binding affinity to human alpha1B-adrenoceptor
T2 sequence (P35368 whole entry): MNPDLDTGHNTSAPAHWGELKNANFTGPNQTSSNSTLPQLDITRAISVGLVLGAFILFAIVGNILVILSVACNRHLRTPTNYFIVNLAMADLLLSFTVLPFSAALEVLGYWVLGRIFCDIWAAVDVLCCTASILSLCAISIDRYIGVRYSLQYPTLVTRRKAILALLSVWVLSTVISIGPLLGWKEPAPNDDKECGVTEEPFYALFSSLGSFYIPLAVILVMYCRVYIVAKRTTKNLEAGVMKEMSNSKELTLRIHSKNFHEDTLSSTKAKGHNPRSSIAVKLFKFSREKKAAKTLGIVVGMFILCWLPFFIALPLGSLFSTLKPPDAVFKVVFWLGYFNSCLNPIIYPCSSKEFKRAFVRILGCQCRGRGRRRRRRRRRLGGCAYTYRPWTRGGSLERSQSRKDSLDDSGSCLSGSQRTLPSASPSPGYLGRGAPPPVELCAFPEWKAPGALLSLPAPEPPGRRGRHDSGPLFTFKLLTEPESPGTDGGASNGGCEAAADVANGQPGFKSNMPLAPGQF

[3] = target: T3, Alpha-2A adrenergic receptor (Homo sapiens, UniProt P08913)
T3 sequence (P08913 whole entry): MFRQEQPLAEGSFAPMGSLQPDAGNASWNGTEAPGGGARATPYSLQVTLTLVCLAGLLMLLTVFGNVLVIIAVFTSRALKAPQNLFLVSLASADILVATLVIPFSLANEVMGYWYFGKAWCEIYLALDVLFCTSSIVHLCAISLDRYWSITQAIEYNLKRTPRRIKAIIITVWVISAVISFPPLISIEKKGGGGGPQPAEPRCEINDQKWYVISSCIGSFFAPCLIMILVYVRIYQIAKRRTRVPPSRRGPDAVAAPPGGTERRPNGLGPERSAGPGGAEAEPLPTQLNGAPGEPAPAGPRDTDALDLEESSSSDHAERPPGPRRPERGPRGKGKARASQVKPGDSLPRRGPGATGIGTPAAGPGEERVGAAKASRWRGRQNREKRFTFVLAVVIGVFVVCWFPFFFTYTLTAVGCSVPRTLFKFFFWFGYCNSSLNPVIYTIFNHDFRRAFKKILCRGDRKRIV
Description: Agonist activity at alpha2A-adrenoceptor (unknown origin) expressed in CHO-alpha2-AR-PKAcatEGFP cells assessed as intracellular cAMP concentration by measuring PKA translocation after 15 mins incubation by PKA redistribution assay

[4] = Selectivity index, ratio of EC50 for alpha2A-adrenoceptor (unknown origin) to EC50 for alpha2B-adrenoceptor (unknown origin)
[5] = Metabolic stability in mouse liver microsomes assessed as elimination half life; type: ADME, Microsome
[6] = Selectivity index, ratio of EC50 for alpha2A-adrenoceptor (unknown origin) to EC50 for alpha1A-adrenoceptor (unknown origin)
[7] = Selectivity index, ratio of EC50 for alpha2A-adrenoceptor (unknown origin) to EC50 for alpha2C-adrenoceptor (unknown origin)
[8] = target: T4, Alpha-2B adrenergic receptor (Homo sapiens, UniProt P18089); assay: Agonist activity at alpha2B-adrenoceptor (unknown origin) expressed in U2OS-EGFP-NFAT2-alpha2B-AR cells assessed as increase in intracellular calcium level measured after 15 mins incubation by Micro automated microscopy; type: functional, cell-based
T4 sequence (P18089 whole entry): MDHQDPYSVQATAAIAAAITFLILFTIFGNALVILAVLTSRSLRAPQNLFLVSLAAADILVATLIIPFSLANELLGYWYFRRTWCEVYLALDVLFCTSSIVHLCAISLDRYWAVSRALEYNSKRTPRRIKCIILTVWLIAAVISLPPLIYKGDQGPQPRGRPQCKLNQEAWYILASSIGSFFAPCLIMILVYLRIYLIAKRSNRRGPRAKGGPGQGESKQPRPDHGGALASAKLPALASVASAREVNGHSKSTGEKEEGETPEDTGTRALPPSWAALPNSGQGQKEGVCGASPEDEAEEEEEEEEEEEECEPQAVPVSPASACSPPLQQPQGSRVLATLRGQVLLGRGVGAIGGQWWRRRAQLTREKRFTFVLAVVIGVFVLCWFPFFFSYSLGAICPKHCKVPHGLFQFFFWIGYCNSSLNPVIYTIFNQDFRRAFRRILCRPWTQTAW

[9] = Metabolic stability in mouse liver microsomes assessed as intrinsic clearance; type: ADME, Microsome; conditions: read-out: CLH
[10] = target: T5, Alpha-1A adrenergic receptor (Homo sapiens, UniProt P35348); assay: Agonist activity at alpha1A-adrenoceptor (unknown origin) expressed in HEK293T cells assessed as fluorescence intensity measured after 30 mins by IP-one homogeneous time-resolved fluorescence assay; type: functional, cell-based
T5 sequence (P35348 whole entry): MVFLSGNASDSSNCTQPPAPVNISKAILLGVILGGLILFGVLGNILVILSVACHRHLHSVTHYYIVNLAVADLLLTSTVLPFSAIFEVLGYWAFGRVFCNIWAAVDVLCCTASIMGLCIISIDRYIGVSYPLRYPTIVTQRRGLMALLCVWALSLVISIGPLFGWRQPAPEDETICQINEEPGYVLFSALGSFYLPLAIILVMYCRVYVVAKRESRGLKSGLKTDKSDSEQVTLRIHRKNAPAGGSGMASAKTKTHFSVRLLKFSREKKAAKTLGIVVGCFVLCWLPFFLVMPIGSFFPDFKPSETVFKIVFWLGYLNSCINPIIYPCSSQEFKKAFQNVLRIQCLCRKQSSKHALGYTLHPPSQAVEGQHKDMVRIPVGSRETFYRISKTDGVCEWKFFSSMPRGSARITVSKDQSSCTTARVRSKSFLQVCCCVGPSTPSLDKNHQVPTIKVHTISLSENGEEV

[11] = target: T6, Alpha-2C adrenergic receptor (Homo sapiens, UniProt P18825); assay: Agonist activity at alpha2C-adrenoceptor (unknown origin) expressed in CHO-alpha2C-PKAcatEGFP cells assessed as increase in intracellular calcium level measured after 15 mins incubation by Micro automated microscopy; type: functional, cell-based
T6 sequence (P18825 whole entry): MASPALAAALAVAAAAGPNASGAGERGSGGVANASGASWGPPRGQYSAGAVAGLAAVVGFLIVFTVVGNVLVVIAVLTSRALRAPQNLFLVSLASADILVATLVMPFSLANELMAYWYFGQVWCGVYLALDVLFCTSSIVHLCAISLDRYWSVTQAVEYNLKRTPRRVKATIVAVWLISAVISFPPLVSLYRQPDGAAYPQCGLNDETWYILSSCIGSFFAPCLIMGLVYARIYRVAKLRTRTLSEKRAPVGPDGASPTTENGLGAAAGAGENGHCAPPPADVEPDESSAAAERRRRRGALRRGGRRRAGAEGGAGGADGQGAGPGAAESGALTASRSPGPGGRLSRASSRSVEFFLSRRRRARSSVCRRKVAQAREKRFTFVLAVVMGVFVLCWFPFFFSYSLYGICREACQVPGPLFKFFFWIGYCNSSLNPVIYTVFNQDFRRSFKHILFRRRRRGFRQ

[12] = target: T5, Alpha-1A adrenergic receptor
Description: Binding affinity to human alpha1A-adrenoceptor

[13] = target: T4, Alpha-2B adrenergic receptor
Description: Binding affinity to human alpha2B-adrenoceptor

[14] = target: T6, Alpha-2C adrenergic receptor
Description: Binding affinity to human alpha2C-adrenoceptor

[15] = target: T3, Alpha-2A adrenergic receptor; remark: listed apart in the source
Description: Binding affinity to human alpha2A-adrenoceptor

[16] = tested on: Mus musculus; assay: Hypnotic activity in ip dosed C57BL/6 mouse assessed as increase in loss of righting reflex (LORR)
[17] = tested on: Mus musculus; assay: Hypnotic activity in ip dosed C57BL/6 mouse assessed as increase in immobility time; type: functional, organism-based
[18] = tested on: HEK293T; assay: Agonist activity at alpha2A-adrenoceptor F427A mutant (unknown origin) expressed in HEK293T cells co-expressing pGloSensor-22F cAMP plasmid assessed as at 1 to 100 uM measured after 10 mins incubation by multiplate reader; type: cell-based; conditions: Homo sapiens, dose 1-100 µM

`Clc1cccc(Cl)c1N=C1NCCN1` [CLONIDINE] showed a Ki [1] of 2570 nM and a Ki [2] of 7410 nM.
For `Cc1cccc2c1OCCC2c1c[nH]cn1` (stereo not drawn), the EC50 [3] was 2.09 nM, the Selectivity Index [4] was 22 and the half-life [5] was 36.8 min. For the same molecule, the Selectivity Index [6] was 1.2, the Selectivity Index [7] was over 2000 and the EC50 [8] was 45.8 nM. The microsomal CLint [9] was 37.7 µL/min/mg, the EC50 [10] was 2.42 nM and the EC50 [11] was over 5000 nM.
For `NC1=N[C@]2(CCc3cccc(Cl)c3C2)OC1`, the Ki [1] was 25.1 nM, the Ki [12] was 3.98 nM and the Ki [13] was 0.251 nM. It also gave a Ki [14] of 0.316 nM, a Ki [15] of 0.316 nM and a Ki [2] of 20 nM.
In the case of `C[C@H](c1c[nH]cn1)c1cccc2ccccc12`, the Ki [12] is reported as 447 nM, the Ki [13] is reported as 35.5 nM and the Ki [14] is reported as 17.8 nM. For the same molecule, the Ki [15] was 15.5 nM.
For `Cc1[nH]cnc1C1=CCOc2c(Cl)cccc21`, the EC50 [3] was over 5000 nM.
In the case of `Cc1cccc([C@H](C)c2c[nH]cn2)c1C` [DEXMEDETOMIDINE], the ED50 [16] is reported as 0.11 mg/kg, the Activity [17] is reported as “Dose-Dependent Effect” and the Activity [18] is reported as “inactive”.
`Clc1ccc2c(c1)C(c1c[nH]cn1)CCO2` (stereo not drawn) showed an EC50 [3] of 64.6 nM.
For `Clc1cccc2c(Nc3ccncc3)cccc12`, the Ki [15] was 8.32 nM.
For `Fc1ccc2c(c1)OCC=C2c1cnc[nH]1`, the EC50 [3] was over 5000 nM.
In the case of `Clc1cccc2c1OCC=C2c1cnc[nH]1`, the EC50 [3] is reported as 12.8 nM.
Work on `Cc1cccc2c1OCC=C2c1c[nH]cn1` yielded an EC50 [3] of 2.11 nM, a Selectivity Index [4] of 47 and a half-life [5] of 4.87 min. For the same molecule, the Selectivity Index [6] was 14, the Selectivity Index [7] was 24 and the EC50 [8] was 100 nM. The microsomal CLint [9] was 284 µL/min/mg, the EC50 [10] was 29.8 nM and the EC50 [11] was 49.6 nM.
With `Brc1ccc2c(c1)C(c1c[nH]cn1)CCO2` (stereo not drawn) the EC50 [3] was 446 nM.
Work on `Brc1ccc2c(c1)OCCC2c1c[nH]cn1` (stereo not drawn) yielded an EC50 [3] of 165 nM.
For `Cc1cccc2c1OCC=C2c1nc[nH]c1C`, the EC50 [3] was over 5000 nM.
Work on `Brc1ccc2c(c1)C(c1c[nH]cn1)=CCO2` yielded an EC50 [3] of over 5000 nM.
`COc1cccc2c1CCOC2C1=NCCN1` (stereo not drawn) [TASIPIMIDINE] gave a Ki [1] of 3090 nM, a Ki [12] of 3090 nM and a Ki [13] of over 1000 nM. The Ki [14] was over 1000 nM, the Ki [15] was 8.71 nM and the Ki [2] was 525 nM.
